Results as given in patent publication US20250011296A1, “MODULATORS OF MOLECULAR TARGETS EXPRESSED IN METABOLIC AND INFLAMMATORY DISORDERS” (Ohio State Innovation Foundation, priority 2021, published 2025).

System: GLUT-4 expression
Test: Larval diabetic zebrafish assay, Western blot of GLUT-4
Format: in vivo
Conditions: duplicate Western blot (FIG. 11), diabetic zebrafish larvae, 10 μM
Procedure: Following isolation, derivatization, and analysis of compounds 41-48 through the in vitro panel of assays, the mace natural products and licarin A derivatives were investigated in the larval diabetic zebrafish assay for potential antidiabetic activity. Western blot analysis of zebrafish expression levels for glycated hemoglobin, metabolic enzymes, and molecular targets NFκB and PPAR-γ was performed to evaluate potential lead improvement and to discover possible mechanisms of action.
Wild-type zebrafish were sorted into 24-well microplates with 10 fish per well for a four-phase treatment cycle. At 72 hpf, type 2 diabetes was induced by administering 0.5 mg/mL alloxan in fish water for percutaneous absorption. After three hours of alloxan treatment, phase two of the treatment cycle was initiated by administering 10 μM doses of natural product compounds 41-43 (FIG. 4) or derivatives 45-48 (FIG. 6) with 0.01% DMSO in system water. […] Following centrifugation (60 minutes at 4° C. and 17,000 rpm), protein content of the homogenate supernatant was determined using the Pierce BCA Protein Assay kit (Pierce Biotechnology). Homogenates were analyzed by Western blot with equal amounts of total protein (20 μg) in each sample and using 4×LDS loading buffer (NuPAGE Life Technologies). […]
Electrophoresis was performed with NuPAGE MES SDS Running Buffer and using the XCell SureLock Mini-Cell Electrophoresis System (Life Technologies). […] The HRP conjugated antibodies were detected using SuperSignal West Femto chemiluminescent substrate (Pierce Biotechnology) and immunoblot images were captured using the luminometer and Lumi Analyst 3.0 software.
Band densities were determined using ImageJ Gel Analysis to determine expression levels of each protein of interest. Expression levels of HbA1C, PPAR-γ, and NFκB were organized into a bar graphs (FIG. 5) with band densities calculated in comparison to the housekeeping gene β-actin, normalized to the untreated diabetic group (B) of zebrafish. […].

Q: Which “GLUT-4 expression (band density)” value does the source give for `C/C=C/c1cc(OC)c2c(c1)[C@H](C)[C@@H](c1ccc(O)c(OC)c1)O2` [Compound 42, licarin A] here?
A: Its value is “significantly increased capacities for glucose uptake”.
